Laboratory results from ChEMBL document CHEMBL1130039, “1,2-Diarylimidazoles as potent, cyclooxygenase-2 selective, and orally active antiinflammatory agents” (J Med Chem, 1997).
The source made the active and inactive calls. The calls are words filed in the database; no cut-off is given here.

What was measured:
[1] = organism: Rattus norvegicus; test: animal or person; format: functional
[2] = organism: Rattus norvegicus; test: animal or person; format: functional; remark: listed apart in the source
[3] = organism: Rattus norvegicus; test: animal or person; format: functional; remark: listed apart in the source
[4] = organism: Rattus norvegicus; test: animal or person; format: functional; remark: listed apart in the source
[5] = target: T1, Prostaglandin G/H synthase 1 (Homo sapiens, UniProt P23219)
[6] = target: T2, Prostaglandin G/H synthase 2 (Homo sapiens) (UniProt P35354)
T2 sequence (whole entry): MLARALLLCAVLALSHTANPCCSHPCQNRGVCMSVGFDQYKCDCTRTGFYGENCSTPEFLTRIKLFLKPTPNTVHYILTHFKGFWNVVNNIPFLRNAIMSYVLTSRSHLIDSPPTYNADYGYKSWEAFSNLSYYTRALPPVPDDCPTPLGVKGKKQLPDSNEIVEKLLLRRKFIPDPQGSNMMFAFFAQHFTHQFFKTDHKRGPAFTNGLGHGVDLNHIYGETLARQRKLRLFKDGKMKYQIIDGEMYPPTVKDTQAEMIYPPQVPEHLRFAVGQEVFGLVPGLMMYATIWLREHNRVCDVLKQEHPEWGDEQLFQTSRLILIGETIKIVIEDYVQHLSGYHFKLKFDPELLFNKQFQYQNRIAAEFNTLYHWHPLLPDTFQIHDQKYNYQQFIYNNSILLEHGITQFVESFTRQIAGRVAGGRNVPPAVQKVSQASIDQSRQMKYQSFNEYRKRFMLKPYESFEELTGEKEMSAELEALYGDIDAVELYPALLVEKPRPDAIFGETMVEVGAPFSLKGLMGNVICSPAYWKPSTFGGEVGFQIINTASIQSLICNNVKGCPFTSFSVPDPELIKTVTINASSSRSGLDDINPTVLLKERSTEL

[7] = target: T1, Prostaglandin G/H synthase 1; remark: listed apart in the source
[8] = physchem; conditions: octanol/water
[9] = rat, in vivo, po, 200 mg/kg
[10] = mouse, in vivo, po, 200 mg/kg
[11] = mouse, in vivo, po, 20 mg/kg
[12] = organism: Rattus norvegicus; test: animal or person; format: functional; remark: listed apart in the source
[13] = organism: Rattus norvegicus; test: animal or person; format: functional; remark: listed apart in the source
[14] = organism: Rattus norvegicus; test: animal or person; format: functional; remark: listed apart in the source
[15] = organism: Rattus norvegicus; test: animal or person; conditions: read-out: Inhibition
[16] = organism: Rattus norvegicus; test: animal or person; format: functional; remark: listed apart in the source

T1 sequence (P23219 whole entry): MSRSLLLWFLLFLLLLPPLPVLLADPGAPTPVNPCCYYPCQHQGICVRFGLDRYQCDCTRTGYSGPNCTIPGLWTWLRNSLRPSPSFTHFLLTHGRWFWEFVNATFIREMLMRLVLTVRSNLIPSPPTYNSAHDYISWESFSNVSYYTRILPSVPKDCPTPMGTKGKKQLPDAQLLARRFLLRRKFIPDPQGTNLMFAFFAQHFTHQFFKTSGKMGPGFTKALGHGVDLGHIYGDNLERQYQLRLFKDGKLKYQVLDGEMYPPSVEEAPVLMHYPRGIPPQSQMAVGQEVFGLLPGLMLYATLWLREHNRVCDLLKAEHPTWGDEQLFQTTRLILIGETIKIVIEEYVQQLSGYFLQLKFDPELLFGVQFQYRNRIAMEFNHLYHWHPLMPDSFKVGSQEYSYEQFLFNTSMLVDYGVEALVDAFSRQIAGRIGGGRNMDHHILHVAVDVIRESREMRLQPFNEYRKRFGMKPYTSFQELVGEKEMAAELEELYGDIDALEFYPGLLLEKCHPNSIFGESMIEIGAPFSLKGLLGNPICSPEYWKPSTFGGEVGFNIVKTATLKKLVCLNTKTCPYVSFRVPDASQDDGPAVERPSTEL

Structure (SMILES)	inhibition in vivo at 2 mg/kg [1] [%]	IC50 [5] [µM]	further results
CS(=O)(=O)c1ccc(-n2cc(C(F)(F)F)nc2-c2ccccc2)cc1	98		ED50 [2]: 20.8 mg/kg; ED50 [3]: 56 mg/kg
CS(=O)(=O)c1ccc(-n2cc(C(F)(F)F)nc2-c2ccc(F)c(F)c2)cc1	87		
CSc1ccc(-c2nc(C(F)(F)F)cn2-c2ccc(S(C)(=O)=O)cc2)cc1Cl	0		
COc1ccc2c(c1)c(CC(=O)O)c(C)n2C(=O)c1ccc(Cl)cc1 [INDOMETHACIN]			ED50 [4]: 60 mg/kg
CS(=O)(=O)c1ccc(-n2cc(C(F)(F)F)nc2-c2ccccc2F)cc1	97		
Cc1cc(-c2nc(C(F)(F)F)cn2-c2ccc(S(C)(=O)=O)cc2)ccc1Cl	64		
COCc1cccc(-c2nc(C(F)(F)F)cn2-c2ccc(S(C)(=O)=O)cc2)c1		> 100	
CS(=O)(=O)c1ccc(-c2[nH]cnc2-c2ccc(F)cc2)cc1			NA [6]: inactive; NA [7]: inactive
CSCc1cn(-c2ccc(S(C)(=O)=O)cc2)c(-c2ccc(Cl)cc2)n1	10	> 100	
Cc1ccc(-c2nc(C(F)(F)F)cn2-c2ccc(S(C)(=O)=O)cc2)cc1C	15		
COc1cccc(-c2nc(C(F)(F)F)cn2-c2ccc(S(C)(=O)=O)cc2)c1	45		
CS(=O)(=O)c1ccc(-n2cc(C(F)(F)F)nc2-c2cccc(Br)c2)cc1	84		
COc1c(F)cc(-c2nc(C(F)(F)F)cn2-c2ccc(S(N)(=O)=O)cc2)cc1F	100		
Cc1cccc(Cl)c1-c1nc(C(F)(F)F)cn1-c1ccc(S(C)(=O)=O)cc1		> 100	
Cc1ccc(-c2nc(C(F)(F)F)cn2-c2ccc(S(N)(=O)=O)cc2)cc1	63		
CS(=O)(=O)c1ccc(-n2cc(COc3ccc(Cl)cc3)nc2-c2ccc(Cl)cc2)cc1	15	> 100	
Cc1ccc(-c2nc(C(F)(F)F)cn2-c2ccc(S(C)(=O)=O)cc2)cc1F	47		
CN(C)c1cc(-c2nc(C(F)(F)F)cn2-c2ccc(S(C)(=O)=O)cc2)ccc1Cl	69	> 100	
CSc1ccc(-c2nc(C(F)(F)F)cn2-c2ccc(S(C)(=O)=O)cc2)cc1	79		

Structure (SMILES)	inhibition in vivo at 2 mg/kg [1] [%]	IC50 [5] [µM]	further results
COc1c(C)cc(-c2nc(C(F)(F)F)cn2-c2ccc(S(C)(=O)=O)cc2)cc1C	29	91	
Cc1cc(F)cc(-c2nc(C(F)(F)F)cn2-c2ccc(S(C)(=O)=O)cc2)c1	87		
CS(=O)(=O)c1ccc(-n2cc(C(F)(F)F)nc2-c2ccc(Cl)cc2)cc1	98		logP [8]: 3.3; ED50 [2]: 9 mg/kg
Cc1ccccc1-c1nc(C(F)(F)F)cn1-c1ccc(S(C)(=O)=O)cc1	95		ED50 [2]: 17.8 mg/kg; Toxicity [9]: 0; ED50 [3]: 43 mg/kg
Cc1cc(F)cc(-c2nc(C(F)(F)F)cn2-c2ccc(S(N)(=O)=O)cc2)c1	80		
Cc1cccc(-c2nc(C(F)(F)F)cn2-c2ccc(S(C)(=O)=O)cc2)c1	77		ED50 [2]: 23 mg/kg; Toxicity [10]: 0; Toxicity [11]: 0; ED50 [3]: 46 mg/kg
COc1cc(-c2nc(C(F)(F)F)cn2-c2ccc(S(C)(=O)=O)cc2)ccc1Cl	0		
CS(=O)(=O)c1ccc(-n2cc(CN)nc2-c2ccc(Cl)cc2)cc1		> 100	
NS(=O)(=O)c1ccc(-n2cc(C(F)(F)F)nc2-c2ccc(F)cc2)cc1	98	1.9	
CS(=O)(=O)c1ccc(-n2ccnc2-c2ccccc2)cc1		> 100	
COc1c(F)cc(-c2nc(C(F)(F)F)cn2-c2ccc(S(C)(=O)=O)cc2)cc1F	89		ED50 [12]: 26 mg/kg
CS(=O)(=O)c1ccc(-n2cc(C(F)(F)F)nc2-c2cc(F)cc(C(F)(F)F)c2)cc1		67	
COc1ccc(-c2nc(C(F)(F)F)cn2-c2ccc(S(C)(=O)=O)cc2)cc1Cl	92		ED50 [13]: 35 mg/kg; ED50 [14]: 29 mg/kg
Cc1cn(-c2ccc(S(C)(=O)=O)cc2)c(-c2ccc(Cl)cc2)n1		> 100	inhibition in vivo at 2 mg/kg [15]: 53%
COc1ccc(-c2nc(C(F)(F)F)cn2-c2ccc(S(N)(=O)=O)cc2)cc1F	89		ED50 [4]: 19 mg/kg; ED50 [3]: 36 mg/kg
CS(=O)(=O)c1ccc(-n2cc(C#N)nc2-c2ccc(Cl)cc2)cc1	69		
CS(=O)(=O)c1ccc(-n2cc(-c3ccccc3)nc2-c2ccc(Cl)cc2)cc1	6	> 100	
CS(=O)(=O)c1ccc(-n2cc(CF)nc2-c2ccc(Cl)cc2)cc1	36	> 100	
Cc1ccc(-c2nc(C(F)(F)F)cn2-c2ccc(S(C)(=O)=O)cc2)cc1Cl	10		ED50 [16]: 20.9 mg/kg; ED50 [3]: 55 mg/kg

Structure (SMILES)	inhibition in vivo at 2 mg/kg [1] [%]	IC50 [5] [µM]	further results
NS(=O)(=O)c1ccc(-n2cc(C(F)(F)F)nc2-c2ccc(F)c(F)c2)cc1	83		
CS(=O)(=O)Cc1cn(-c2ccc(S(C)(=O)=O)cc2)c(-c2ccc(Cl)cc2)n1		> 100	
COc1c(Br)cc(-c2nc(C(F)(F)F)cn2-c2ccc(S(C)(=O)=O)cc2)cc1Br	0	> 100	
CN(C)c1ccc(-c2nc(C(F)(F)F)cn2-c2ccc(S(C)(=O)=O)cc2)cc1Cl	87		
NS(=O)(=O)c1ccc(-n2cc(C(F)(F)F)nc2-c2cccc(Br)c2)cc1		4.5	
CN(C)c1c(Cl)cc(-c2nc(C(F)(F)F)cn2-c2ccc(S(C)(=O)=O)cc2)cc1Cl	25	> 100	
COc1cc(-c2nc(C(F)(F)F)cn2-c2ccc(S(N)(=O)=O)cc2)ccc1Cl	100		
Cc1cc(-c2nc(C(F)(F)F)cn2-c2ccc(S(C)(=O)=O)cc2)ccc1F	90		
Cc1cn(-c2ccc(F)cc2)c(-c2ccc(S(C)(=O)=O)cc2)n1		> 100	
CS(=O)(=O)c1ccc(-n2cc(C(F)(F)F)nc2-c2cc(Cl)cc(Cl)c2)cc1	5		
COc1c(Cl)cc(-c2nc(C(F)(F)F)cn2-c2ccc(S(C)(=O)=O)cc2)cc1Cl	25	> 100	
CS(=O)(=O)c1ccc(-n2cc(CSc3ccc(Cl)cc3)nc2-c2ccc(Cl)cc2)cc1	0	> 100	
Cc1cccc(-c2nc(C(F)(F)F)cn2-c2ccc(S(N)(=O)=O)cc2)c1	95		
Cc1ccc(F)cc1-c1nc(C(F)(F)F)cn1-c1ccc(S(C)(=O)=O)cc1		> 100	
Cc1cc(Cl)cc(-c2nc(C(F)(F)F)cn2-c2ccc(S(N)(=O)=O)cc2)c1	61	> 100	
CS(=O)(=O)c1ccc(-n2cc(C(F)(F)F)nc2-c2ccc3c(c2)OCO3)cc1	78		
CS(=O)(=O)c1ccc(-n2cc(C(F)(F)F)nc2-c2cccc(F)c2)cc1	88		
CS(=O)(=O)c1ccc(-n2cc(C(F)(F)F)nc2-c2cccc(C(F)(F)F)c2)cc1	42		
